Measured values as given in PubChem BioAssay AID248 (DTP/NCI, 2004).
Where “and” joins values, the source holds several entries; their conditions need not be identical. Identical values can stand only once. Toxic doses and inconclusive results are not listed. Rule as the data show it: active = T/C of 150% or more; inactive = T/C below 125%.

System: L1210 leukemia ip in BDF1 mice, survival T/C
Assay: NCI In Vivo Anticancer Drug Screen. Data for tumor model L1210 Leukemia (intraperitoneal) in B6D2F1 (BDF1) mice
Details: endpoint: mean survival time, higher = longer survival
Summary of the method: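 Tumor was transplanted into mice, which were then dosed with test compound or vehicle alone. Survival was recorded for each group, and the treated figure was expressed relative to the control figure.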

[1] = dose: 100.0 mg/kg/injection, schedule: Q04DX003 (ip), vehicle: saline
[2] = dose: 200.0 mg/kg/injection, schedule: Q04DX003 (ip), vehicle: saline
[3] = dose: 100.0 mg/kg/injection, schedule: Q04DX003 (ip), vehicle: saline with Tween-80
[4] = dose: 200.0 mg/kg/injection, schedule: Q04DX003 (ip), vehicle: saline with Tween-80
[5] = dose: 100.0 mg/kg/injection, schedule: Q01DX009 (ip), vehicle: Klucel (hydroxypropylcellulose) (HPC)
[6] = dose: 200.0 mg/kg/injection, schedule: Q01DX009 (ip), vehicle: Klucel (hydroxypropylcellulose) (HPC)
[7] = dose: 400.0 mg/kg/injection, schedule: Q01DX009 (ip), vehicle: Klucel (hydroxypropylcellulose) (HPC)
[8] = dose: 100.0 mg/kg/injection, schedule: Q01DX009 (ip), vehicle: saline with Tween-80
[9] = dose: 200.0 mg/kg/injection, schedule: Q01DX009 (ip), vehicle: saline with Tween-80
[10] = dose: 75.0 mg/kg/injection, schedule: Q01DX001 (ip), vehicle: saline
[11] = dose: 150.0 mg/kg/injection, schedule: Q01DX001 (ip), vehicle: saline
[12] = dose: 100.0 mg/kg/injection, schedule: Q01DX001 (ip), vehicle: carboxymethylcellulose (CMC)
[13] = dose: 100.0 mg/kg/injection, schedule: Q01DX001 (ip), vehicle: saline
[14] = dose: 200.0 mg/kg/injection, schedule: Q01DX001 (ip), vehicle: carboxymethylcellulose (CMC)
[15] = dose: 200.0 mg/kg/injection, schedule: Q01DX001 (ip), vehicle: saline
[16] = dose: 400.0 mg/kg/injection, schedule: Q01DX001 (ip), vehicle: carboxymethylcellulose (CMC)
[17] = dose: 400.0 mg/kg/injection, schedule: Q01DX001 (ip), vehicle: saline

Measured: T/C

CCN(CC)CCNCCN
inactive: dose: 12.5 mg/kg/injection, schedule: Q01DX009 (ip), vehicle: saline 107 % of control | dose: 25.0 mg/kg/injection, schedule: Q01DX009 (ip), vehicle: saline 111 % of control | dose: 50.0 mg/kg/injection, schedule: Q01DX009 (ip), vehicle: saline 101 % of control and 102 % of control | [1] 94 % of control | [2] 96 % of control

CNC(=O)NCc1ccc(Cl)cc1
inactive: [3] 105 % of control | [4] 98 % of control | dose: 400.0 mg/kg/injection, schedule: Q04DX003 (ip), vehicle: saline with Tween-80 107 % of control

CCN(CC)CCCNC(=S)NC(C)(C)CC(C)=O
inactive: dose: 50.0 mg/kg/injection, schedule: Q01DX009 (ip), vehicle: Klucel (hydroxypropylcellulose) (HPC) 89 % of control | [5] 105 % of control | [1] 97 % of control | [2] 101 % of control | dose: 400.0 mg/kg/injection, schedule: Q04DX003 (ip), vehicle: saline 100 % of control

O=C(Nc1nccs1)Nc1ccc(Cl)cc1[N+](=O)[O-]
inactive: [5] 105 % of control | [6] 100 % of control | [7] 102 % of control

CN=C1c2ccccc2C2(c3ccccc3)C1N2C (configuration not stated)
inactive: [8] 95 % of control | dose: 100.0 mg/kg/injection, schedule: Q04DX003 (ip), vehicle: saline sonified 121 % of control | [9] 94 % of control | dose: 200.0 mg/kg/injection, schedule: Q04DX003 (ip), vehicle: saline sonified 108 % of control | dose: 400.0 mg/kg/injection, schedule: Q04DX003 (ip), vehicle: saline sonified 101 % of control

O=C(O)/C=C\c1c[nH]c2ccccc12 (tested in a mixture with another compound)
inactive: [10] 104 % of control | [11] 105 % of control | dose: 300.0 mg/kg/injection, schedule: Q01DX001 (ip), vehicle: saline 110 % of control

O=c1[nH]cc([N+](=O)[O-])c(=O)[nH]1
inactive: dose: 100.0 mg/kg/injection, schedule: Q04DX002 (ip), vehicle: saline 100 % of control | dose: 200.0 mg/kg/injection, schedule: Q04DX002 (ip), vehicle: saline 106 % of control | dose: 400.0 mg/kg/injection, schedule: Q04DX002 (ip), vehicle: saline 95 % of control

CC1CC(C)(C)[N+](C)=C(CC(O)(c2ccccc2)c2ccccc2)O1 (configuration not stated)
inactive: dose: 6.25 mg/kg/injection, schedule: Q04DX003 (ip), vehicle: saline sonified 95 % of control | dose: 12.5 mg/kg/injection, schedule: Q04DX003 (ip), vehicle: saline sonified 104 % of control | dose: 25.0 mg/kg/injection, schedule: Q04DX003 (ip), vehicle: saline sonified 92 % of control

NCCSC(C[N+](=O)[O-])c1ccc2c(c1)OCO2 (configuration not stated)
inactive: [3] 93 % of control | [4] 98 % of control

O=C1c2cc(Cl)cc(Cl)c2-c2c1cc(Cl)cc2[N+](=O)[O-]
inactive: [5] 97 % of control | dose: 100.0 mg/kg/injection, schedule: Q04DX003 (ip), vehicle: Klucel (hydroxypropylcellulose) (HPC) 97 % of control | [6] 95 % of control | dose: 200.0 mg/kg/injection, schedule: Q04DX003 (ip), vehicle: Klucel (hydroxypropylcellulose) (HPC) 97 % of control | [7] 97 % of control | dose: 400.0 mg/kg/injection, schedule: Q04DX003 (ip), vehicle: Klucel (hydroxypropylcellulose) (HPC) 92 % of control

O=c1c(N=Nc2ccc(Br)cc2)c(O)n(-c2ccc(I)cc2)c(=S)n1-c1ccccc1
inactive: dose: 50.0 mg/kg/injection, schedule: Q01DX001 (ip), vehicle: Klucel (hydroxypropylcellulose) (HPC) 97 % of control | dose: 100.0 mg/kg/injection, schedule: Q01DX001 (ip), vehicle: Klucel (hydroxypropylcellulose) (HPC) 108 % of control | dose: 200.0 mg/kg/injection, schedule: Q01DX001 (ip), vehicle: Klucel (hydroxypropylcellulose) (HPC) 121 % of control

CC(=O)OCC1OC(n2c(Br)nc3c(N)ncnc32)C(OC(C)=O)C1OC(C)=O (configuration not stated)
inactive: dose: 50.0 mg/kg/injection, schedule: Q01DX001 (ip), vehicle: saline 98 % of control | [12] 98 % of control | [13] 95 % of control | dose: 100.0 mg/kg/injection, schedule: Q01DX005 (ip), vehicle: saline 89 % of control | [14] 95 % of control | [15] 104 % of control | dose: 200.0 mg/kg/injection, schedule: Q01DX005 (ip), vehicle: saline 93 % of control | [16] 101 % of control

CC(=O)c1ccc2c(c1)Cc1cc(Br)ccc1-2
inactive: [12] 97 % of control | [14] 89 % of control | [16] 97 % of control

CC(CP(=O)(c1ccccc1)c1ccccc1)C(=O)O (configuration not stated)
inactive: [8] 98 % of control | [9] 97 % of control | dose: 400.0 mg/kg/injection, schedule: Q01DX009 (ip), vehicle: saline with Tween-80 98 % of control

CCCCCCCCCNC(C)=O
inactive: [5] 97 % of control | [6] 92 % of control

Fc1ccc(Cl)c2cccnc12
inactive: [10] 105 % of control | [11] 102 % of control

CCCC(C)NNC(C)CCC (configuration not stated)
inactive: dose: 75.0 mg/kg/injection, schedule: Q01DX001 (ip), vehicle: acetone 96 % of control | dose: 75.0 mg/kg/injection, schedule: Q01DX001 (ip), vehicle: other 114 % of control | dose: 150.0 mg/kg/injection, schedule: Q01DX001 (ip), vehicle: acetone 101 % of control

CC1=CC(=O)NC1=O
inactive: dose: 25.0 mg/kg/injection, schedule: Q04DX003 (ip), vehicle: saline 103 % of control | dose: 50.0 mg/kg/injection, schedule: Q04DX003 (ip), vehicle: saline 98 % of control | [1] 97 % of control

C[P+](Cc1ccccc1)(c1ccccc1)c1ccccc1
inactive: dose: 1.25 mg/kg/injection, schedule: Q01DX001 (ip), vehicle: other 101 % of control | dose: 2.5 mg/kg/injection, schedule: Q01DX001 (ip), vehicle: other 94 % of control | dose: 5.0 mg/kg/injection, schedule: Q01DX001 (ip), vehicle: other 98 % of control

CNc1nc(=O)n(C2CCCO2)cc1C (configuration not stated)
inactive: [13] 90 % of control | [15] 98 % of control | [17] 95 % of control

CCOc1ccc(C(=N)N2CCN(C)CC2)c2ccccc12
inactive: dose: 4.2 mg/kg/injection, schedule: Q01DX Z (ip), vehicle: methylcellulose (MC) 104 % of control | dose: 6.3 mg/kg/injection, schedule: Q01DX Z (ip), vehicle: methylcellulose (MC) 103 % of control | dose: 9.5 mg/kg/injection, schedule: Q01DX Z (ip), vehicle: methylcellulose (MC) 97 % of control | dose: 14.3 mg/kg/injection, schedule: Q01DX Z (ip), vehicle: methylcellulose (MC) 106 % of control

Cn1cc(C(C)(C(=O)O)c2cn(C)c3ccccc23)c2ccccc21
inactive: [13] 104 % of control | [15] 102 % of control | [17] 102 % of control

CCC(=O)C(CCN(C)C)c1ccccn1 (configuration not stated)
inactive: dose: 20.0 mg/kg/injection, schedule: Q01DX Z (ip), vehicle: saline 103 % of control | dose: 30.0 mg/kg/injection, schedule: Q01DX Z (ip), vehicle: saline 91 % of control | dose: 44.0 mg/kg/injection, schedule: Q01DX Z (ip), vehicle: saline 91 % of control | dose: 66.0 mg/kg/injection, schedule: Q01DX Z (ip), vehicle: saline 93 % of control
